Reference: PMC4865847, “Putative histidine kinase inhibitors with antibacterial effect against multi-drug resistant clinical isolates identified by in vitro and in silico screens” (Scientific Reports, 2016)
“And” between values parts separate entries of the source, which are not always exact repeats. Equal entries are not always repeated. Where two headings read alike, the source gives them in different places.

How the values were obtained:
[1] = Solubility in kinase buffer; type: physicochemical; settings: kinase buffer in the presence of 10% DMSO
[2] = biological target: T1, HK WalK (DHp and CA domain) (Streptococcus pneumoniae, UniProt Q8DPL8); assay: Differential scanning fluorimetry (DSF), WalK; type: binding
T1 construct: WalK (amino acids from 208 to 449); N-terminal His6-3C site of vector pOPINF (own knowledge of the vector); made in house; host or cells: E. coli RIL
T1 sequence (Q8DPL8 208-449): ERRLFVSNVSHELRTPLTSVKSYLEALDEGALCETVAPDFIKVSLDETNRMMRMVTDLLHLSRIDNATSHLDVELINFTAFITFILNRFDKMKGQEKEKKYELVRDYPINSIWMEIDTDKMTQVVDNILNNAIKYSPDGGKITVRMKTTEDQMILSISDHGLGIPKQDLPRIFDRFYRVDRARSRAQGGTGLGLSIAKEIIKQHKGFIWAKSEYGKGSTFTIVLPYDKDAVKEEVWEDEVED
Experimental: (§1) To monitor protein unfolding, the fluorescent dye Sypro orange was used[26]. Differential scanning fluorimetry (DSF) experiments were conducted in the iCycleriQ Real Time Detection System (Bio-Rad, Hercules, CA). Solutions of 20 μl of 0.1 mg/ml protein (final concentration), 200 μM fragment cocktails or individual fragments (final concentration), 10X sypro orange (final concentration) and buffer (100 mM TrisCl pH 8, 150 mM NaCl) were added to the wells of the 96-well iCycler iQ PCR plate. The plate was heated from 20 to 85 or 99 °C at a heating rate of 1 °C/min. The fluorescent intensity was measured with Ex/Em: 490/530 nm. Prism GraphPad v.5 was used for curve fitting and statistical analysis.

E. coli EnvZ = biological target: T2, E. coli EnvZ (Escherichia coli, UniProt P0AEJ4); assay: Aggregation analysis by native-PAGE, EnvZ; settings: 2 mM, 10% DMSO
T2 construct: The catalytic portion (DHp and CA domain) of E. coli PhoR (PhoR^E), E. coli EnvZ; made in house; host or cells: E. coli RIL
T2 sequence (P0AEJ4 240-440): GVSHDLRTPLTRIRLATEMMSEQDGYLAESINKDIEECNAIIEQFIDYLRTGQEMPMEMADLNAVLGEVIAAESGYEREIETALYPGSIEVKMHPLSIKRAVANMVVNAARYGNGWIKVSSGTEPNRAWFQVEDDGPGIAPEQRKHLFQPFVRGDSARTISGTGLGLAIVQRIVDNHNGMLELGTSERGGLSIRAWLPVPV
Experimental: E. coli PhoR and EnvZ, and S. aureus PhoR ([…], final concentration) were prepared in kinase buffer. […] DMSO in the assays was maintained to a final concentration 10% (v/v). After 30 min of incubation at room temperature Native polyacrylamide gel electrophoresis (Native-PAGE) loading buffer was added and samples loaded. Coomassie blue staining was used for protein visualization.

E. coli PhoR (PhoR^E) = biological target: T3, E. coli PhoR (PhoR^E) (Escherichia coli, UniProt P08400); assay: In vitro autophosphorylation kinase assay with γ-32P-ATP, PhoR^E; type: biochemical; settings: for IC50: autophosphorylation, one time point (30 sec), 10% DMSO; for inhibition at 2000 µM: 2 mM, 30 sec, compared to negative control
T3 construct: The catalytic portion (DHp and CA domain) of E. coli PhoR (PhoR^E); made in house; host or cells: E. coli RIL
T3 sequence (P08400 210-425): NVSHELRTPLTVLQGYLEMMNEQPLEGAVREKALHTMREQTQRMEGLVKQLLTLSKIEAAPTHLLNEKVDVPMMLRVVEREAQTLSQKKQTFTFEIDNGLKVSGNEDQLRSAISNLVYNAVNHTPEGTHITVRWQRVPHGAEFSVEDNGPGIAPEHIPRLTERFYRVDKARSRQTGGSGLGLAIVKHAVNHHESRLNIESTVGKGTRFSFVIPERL
Summary of the method: (§2)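 Histidine kinase (0.12 mg/ml, ≈4 μM) incubated with up to 20 mM fragment in 50 mM Tris HCl pH 8.5, 50 mM KCl, 5 mM MgCl2, 0.5 mM EDTA, 0.1 mM DTT; started with 0.1 μCi/μl γ-32P-ATP (0.03–0.06 μM ATP final). Phosphoprotein quantified by SDS-PAGE and phosphor-imaging, curve-fitted; DMSO controls.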

HK NblS (CA domain) = assay: Differential scanning fluorimetry (DSF), NblS; type: binding, Synechococcus sp. PCC 7942
Experimental: as §1

S. pneumoniae WalK = biological target: T4, S. pneumoniae WalK (Streptococcus pneumoniae, UniProt Q8DPL8); assay: In vitro autophosphorylation kinase assay with γ-32P-ATP, WalK; type: biochemical
T4 construct: WalK (amino acids from 208 to 449); N-terminal His6-3C site of vector pOPINF (own knowledge of the vector); made in house; host or cells: E. coli RIL
T4 sequence (Q8DPL8 208-449): as the sequence (Q8DPL8 208-449) above
Summary of the method: as §2

NCI-60 tumor cell lines = system: NCI-60 tumor cell lines; set-up: method as in PMID 11121759; settings: 2.72 μg/ml (10 μM), one dose; maximum over cell lines; cited from earlier work
Gram positive strains = assay: Antibacterial susceptibility testing, Gram positive strains (summary); type: cell-based
Experimental: (§3) Bacterial strains used in this study for antibacterial susceptibility testing (Table S5) were propagated using standard microbiological procedures. Minimal inhibitory concentrations (MICs) were determined following a standard double-dilution method. MICs were recorded as the lowest concentration of the compound where no visible growth was observed. After plating the dilutions around the MIC or growing them in fresh MH media, minimal bactericidal concentration (MBC) was recorded as the lowest concentration of the compound at which no colonies were formed or no growth was observed, respectively. For S. pneumoniae MICs were determined by adapting the standard double-dilution method to anaerobic conditions and of this microorganism (use of Todd Hewitt Yeast extract with 200 U/mL of catalase and continuous monitoring of growth).

Gram negative strains = assay: Antibacterial susceptibility testing, Gram negative strains (summary); type: cell-based; settings: read-out: MIC Gram negative
Experimental: as §3

Nc1nc(-c2ccc(Br)cc2)cs1 [F1, 4-(4-bromophenyl)-1,3-thiazol-2-amine]
solubility in kinase buffer [1]: limited solubility
increase of WalK Tm [2]: 4.5 °C
HK aggregation, EnvZ (E. coli EnvZ): do not cause HK aggregation
IC50 (E. coli PhoR (PhoR^E); read-out: IC50 PhoR^E): ~2000 µM and 2000 µM
increase of NblS Tm (HK NblS (CA domain)): 2.1 °C
IC50 (S. pneumoniae WalK; autophosphorylation, one time point (30 sec), 10% DMSO, read-out: IC50 WalK): > 2000 µM
inhibitory capacity for WalK autophosphorylation activity (S. pneumoniae WalK; single concentration 5 mM, 30 sec): weak inhibitory capacity

CC(C)(C)c1ccc(O)c(CNc2ccccc2)c1 [S1.14, 4-tert-butyl-2-[(phenylamino)methyl]phenol]
inhibition at 2000 µM (E. coli PhoR (PhoR^E)): > 40%
IC50 (E. coli PhoR (PhoR^E); read-out: IC50 PhoR^E): > 2000 µM

CC(=O)Nc1cccc(-c2ccccc2Cl)c1 [S1.7, N-[3-(2-chlorophenyl)phenyl]acetamide]
solubility ([1]; kinase buffer with 10% DMSO, pH 8.5, aqueous with cosolvent or surfactant or cyclodextrin, kinetic from dmso stock, read-out: concentration above which not soluble / reduced solubility in kinase buffer): ≤ 1000 µM
inhibition at 2000 µM (E. coli PhoR (PhoR^E)): > 40%
IC50 (E. coli PhoR (PhoR^E); IC50 PhoR^E): 100 µM and ~100 µM

CC[C@H](c1ccc(O)cc1)[C@@H](CC)c1ccc(F)cc1 [S1.13, 4-[(3S,4R)-4-(4-fluorophenyl)hexan-3-yl]phenol]
solubility in kinase buffer [1]: good solubility
growth inhibition of NCI-60 cell lines (NCI-60 tumor cell lines): ≤ 19%
inhibition at 2000 µM (E. coli PhoR (PhoR^E)): > 75%
IC50 (E. coli PhoR (PhoR^E); read-out: IC50 PhoR^E): 16 µM
MBC (Gram positive strains; Staphylococcus aureus, MRSA, summary, read-out: MBCs against Gram-positives, including multi-drug resistant MRSA): ≤ 16 µg/mL
MIC (Gram positive strains; summary over Gram positive strains): ≥ 8 µg/mL
MIC (Gram negative strains): > 500 µg/mL
